Measurements: US8586555B2, “Immunomodulatory compositions, formulations, and methods for use thereof” (Dynavax Technologies Corporation, priority 2001, dated 2013)

Key:
Assay type in all cases: cell-based
[1] = system: human peripheral blood mononuclear cells (hPBMC); assay: human PBMC assay, Example 3 (oligo and PLGA added at the same time, 48 well plates); details: for IFN-α / IFN-γ: oligo 20 μg/ml, PLGA 250 μg/ml, 24 hours; for IFN-α Mean / IFN-γ Mean: mean of donors 28033, 28034
Procedure: (§1) Hexameric oligonucleotides were tested for immunomodulatory activity alone and complexed with lactic acid/glycolic acid copolymer microcarrier beads using a human peripheral blood mononuclear cells (hPBMC) assay. Peripheral blood was collected from healthy volunteers by venipuncture using heparinized syringes. Blood was layered onto a FICOLL® (Amersham Pharmacia Biotech) cushion and centrifuged. hPBMCs, located at the FICOLL® interface, were collected, then washed twice with cold phosphate buffered saline (PBS). The cells were resuspended and cultured in 48 well plates at 2×10^6 cells/mL at 37° C. in RPMI 1640 with 10% heat-inactivated human AB serum plus 50 units/mL penicillin, 50 μg/mL streptomycin, 300 μg/mL glutamine, 1 mM sodium pyruvate, and 1×MEM non-essential amino acids (NEAA).
(§2) Oligonucleotides were tested as single agents, or in combination with PLGA microspheres (unmodified or cationic). All oligonucleotides contained 100% phosphorothioate linkages and were tested at 20 μg/ml. The PLGA microcarriers were used at 250 μg/ml. When oligos were tested with PLGA microcarriers, the oligo and the microcarriers were added at the same time to the culture. The cells were cultured in the in the presence of test samples for 24 hours, then cell-free medium was collected from each well and assayed for IFN-γ and IFN-α concentration. Two different oligonucleotides were used as controls: a first oligonucleotide known to have immunostimulatory activity (a 22mer oligonucleotide containing an ISS (“ISS+,” 5′-[…]-3′(SEQ ID NO:2)) and a second oligonucleotide of similar sequence but lacking immunostimulatory activity (“ISS−,” 5′-[…]-3′ (SEQ ID NO:1)). SAC (PANSORBIN® CalBiochem, 1/5000 dilution) and a untreated culture were used as additional positive and negative controls, respectively. SAC contains Staph. aureus (Cowan I) cell material. All samples were assayed in duplicate.
(§3) IFN-γ and IFN-α were assayed using CYTOSCREEN™ ELISA kits from BioSource International, Inc., according to the manufacturer's instructions.

[2] = system: human peripheral blood mononuclear cells (hPBMC); assay: human PBMC assay, Example 5 (96 well plates, premixed); details: for IFN-α Mean / IFN-γ Mean: mean of donors 28051-28054
Procedure: as §1, §2, §3
(§4) The immunomodulatory activity of the oligonucleotides used in Examples 3 and 4 was confirmed with the human PBMC assay using PBMCs from an additional four donors (donors 28051-28054). Oligonucleotides were tested alone or in combination with cationic PLGA as described in Example 3, except that 96 well plates were used instead of 48 well plates and the oligonucleotides were premixed with the cationic microspheres at room temperature for 15 minutes before they were added to the culture, rather than being added simultaneously to the culture.

[3] = system: human peripheral blood mononuclear cells (hPBMC); assay: human PBMC assay, Example 6
Procedure: as §1, §2, §3, §4
Additional oligonucleotides were tested for immunomodulatory activity in the human PBMC assay. Oligonucleotides were tested alone or in combination with cPLGA as described in Example 5.
Additional oligonucleotides were tested using hPBMCs from volunteers 154-157 using the same assay. Results, which are shown in Table 7, confirm the activity of oligonucleotides fitting the formula 5′-X1TCGX2-3′, where the oligonucleotide is a 3-6mer, X1 is zero or one nucleotide and X2 is zero to three nucleotides.

[4] = in combination with cationic PLGA
[5] = delivered as IMO/MC complexes (cPLGA)

Substance	IFN-α ([1]; donor 28033)	IFN-γ ([1]; donor 28033)	IFN-α ([1]; donor 28034)	IFN-γ ([1]; donor 28034)	IFN-α Mean [1]	IFN-γ Mean [1]	immunomodulatory activity [2, 5]	IFN-α ([2]; donor 28051)	IFN-γ ([2]; donor 28051)	IFN-α ([2]; donor 28052)	IFN-γ ([2]; donor 28052)	IFN-α ([2]; donor 28053)	IFN-γ ([2]; donor 28053)	IFN-α ([2]; donor 28054)	IFN-γ ([2]; donor 28054)	IFN-α Mean [2]	IFN-γ Mean [2]	immunomodulatory activity [1, 4]	immunomodulatory activity ([2]; delivered alone)	also measured
5′-AACGTT-3′ [Oligonucleotide 6-16]	3 pg/mL	0 pg/mL	48 pg/mL	3 pg/mL	26 pg/mL	2 pg/mL	variable activity	2 pg/mL	1 pg/mL	1 pg/mL	2 pg/mL	1 pg/mL	2 pg/mL	2 pg/mL	8 pg/mL	2 pg/mL	3 pg/mL			IFN-α induction [1, 4]: induce IFN-α in one of the two donors
5′-ATCGAT-3′ [Oligonucleotide 6-7]	8 pg/mL	0 pg/mL	22 pg/mL	3 pg/mL	15 pg/mL	2 pg/mL	highly active	1 pg/mL	1 pg/mL	0 pg/mL	1 pg/mL	4 pg/mL	2 pg/mL	1 pg/mL	2 pg/mL	2 pg/mL	1 pg/mL	active	inactive	
5′-TCGTCG-3′ [Oligonucleotide 6-1]	0 pg/mL	0 pg/mL	40 pg/mL	4 pg/mL	20 pg/mL	2 pg/mL	highly active	0 pg/mL	2 pg/mL	2 pg/mL	3 pg/mL	1 pg/mL	1 pg/mL	4 pg/mL	2 pg/mL	2 pg/mL	2 pg/mL	active	inactive	IFN-α Mean ([3]; mean of volunteers 154-157): 0 pg/mL; IFN-γ Mean ([3]; mean of volunteers 154-157): 3 pg/mL; IFN-α ([3]; volunteer 154): 0 pg/mL; IFN-γ ([3]; volunteer 154): 0 pg/mL; IFN-α ([3]; volunteer 155): 0 pg/mL; IFN-γ ([3]; volunteer 155): 0 pg/mL; IFN-α ([3]; volunteer 156): 0 pg/mL; IFN-γ ([3]; volunteer 156): 11 pg/mL; IFN-α ([3]; volunteer 157): 0 pg/mL; IFN-γ ([3]; volunteer 157): 0 pg/mL
